# Test results as given in patent publication US6479651B1, “Modified oligonucleotides, their preparation and their use” (Aventis Pharma Deutschland GmbH, priority 1994, dated 2002).
row,SMILES,melting point
1,"O=C(Nc1ncnc2c1c(Cl)cn2[C@H]1C[C@H](O)[C@@H](CO)O1)c1ccccc1 [Compound 4, 4-Benzoylamino-5-chloro-7-(2-deoxy-β-D-erythropentofuranosyl)-7H-pyrrolo[2,3-d]pyrimidine]",190 °C
2,"O=C(Nc1ncnc2c1c(Br)cn2[C@H]1C[C@H](O)[C@@H](CO)O1)c1ccccc1 [Compound 5, 4-Benzoylamino-5-bromo-7-(2-deoxy-β-D-erythropentofuranosyl)-7H-pyrrolo[2,3-d]pyrimidine]",198 °C
3,"COc1nc(NC=O)nc2c1c(Cl)c(Cl)n2[C@H]1C[C@H](OC(=O)C(C)C)[C@@H](COC(=O)C(C)C)O1 [Compound 49, 7-[2-Deoxy-3,5-di-O-(2-methylpropionyl)-β-D-erythropentofuranosyl]-5,6-dichloro-2-[(formyl)amino]-4-methoxy-7H-pyrrolo[2,3-d]pyrimidine]",127 to 128 °C

# Continued, values first:
row,melting point,SMILES
1,196 °C,"Cc1cn([C@H]2C[C@H](O)[C@@H](CO)O2)c2ncnc(NC(=O)c3ccccc3)c12 [Compound 6, 4-Benzoylamino-7-(2-deoxy-β-D-erythropentofuranosyl)-5-methyl-7H-pyrrolo[2,3-d]pyrimidine]"
2,194 °C,"Nc1ncnc2c1c(I)cn2[C@H]1C[C@H](O)[C@@H](CO)O1 [Compound 14, 4-Amino-7-(2-deoxy-β-D-erythropentofuranosyl)-5-iodo-7H-pyrrolo [2,3-d]pyrimidine]"
3,218 to 220 °C,"Nc1nc2c(c(I)cn2[C@H]2C[C@H](O)[C@@H](CO)O2)c(=O)[nH]1 [Compound 58, 2-Amino-7-(2-deoxy-β-D-erythropentofuranosyl)-5-iodo-3,7-dihydro-4H-pyrrolo[2,3-d]pyrimidin-4-one]"
